Laboratory results published in ChEMBL document CHEMBL1130607, “Reversal of multidrug resistance (MDR) by aspidofractinine-type indole alkaloids” (Bioorg Med Chem Lett, 1998).
In brackets after ≈: the same amount, converted by molar mass.

What follows are compounds tested on Epidermoid carcinoma cell line (assay: Compound was evaluated for cytotoxicity against vincristine- sensitive (KB/S) human oral epidermoid carcinoma cell line at 7 ug/mL). Details: not given.
Format: functional
Work on `COC(=O)C1=CC23CCCN4CC[C@@]5(c6cccc(OC)c6N(C(=O)OC)C15CC2)[C@@H]43` (stereo partly specified) yielded a Cell growth of less than 50%.

Each compound was assayed on Epidermoid carcinoma cell line (assay: Compound was evaluated for cytotoxicity against vincristine- resistant (KB/VJ300) human oral epidermoid carcinoma cell line). Details: not given.
Format: functional, cell-based
`COC(=O)N1c2c(OC)cccc2[C@@]23CCN4CC=C[C@]5(CC[C@]12[C@](O)(C(=O)OC)[C@@H]5O)[C@H]43` [KOPSINGINE] showed an IC50 greater than 25 µg/mL.
For `COC(=O)[C@@H]1CC23CCCN4CC[C@@]5(c6ccccc6NC15CC2)[C@@H]43` (stereo partly specified) [KOPSININE], the IC50 was 25 µg/mL (≈ 73.9 µM).
Compound `COC(=O)[C@@H]1CC23CCCN4CC[C@@]5(c6cccc(OC)c6N(C(=O)OC)C15CC2)[C@@H]43` (stereo partly specified) has an IC50 of 21 µg/mL (≈ 49.2 µM).
`COC(=O)N1c2c(OC)cccc2[C@@]23CCN4CCCC5(CCC12[C@](O)(C(=O)OC)C5)[C@H]43` (stereo partly specified) [KOPSILONGINE] gave an IC50 of 15.4 µg/mL (≈ 34.8 µM).

These compounds were tested on Epidermoid carcinoma cell line (assay: Compound was evaluated for cytotoxicity against vincristine- resistant (KB/VJ300) human oral epidermoid carcinoma cell line; P = poor activity or moderate activity). Details: Homo sapiens, Epidermoid carcinoma cell line; read-out: IC50.
Format: functional, cell-based
Compound `COC(=O)N1c2c(ccc(O)c2OC)[C@@]23CCN4CCCC5(CCC12[C@](O)(C(=O)OC)C5)[C@H]43` (stereo partly specified) has an IC50 greater than 25 µg/mL.

Same assay, conditions: epidermoid carcinoma cell line
`COC(=O)N1c2c(OC)cccc2[C@@]23CCN4CCC[C@]5(CC[C@]12[C@](O)(C(=O)OC)[C@@H]5O)[C@H]43` [DIHYDROKOPSINGINE] was tested, and the IC50 was “Poor or moderate activity”.

These compounds were tested on Epidermoid carcinoma cell line (assay: Compound was evaluated for cytotoxicity against vincristine- resistant (KB/VJ300) human oral epidermoid carcinoma cell line; poor activity or moderate activity). Details: not given.
Format: functional, cell-based
`COC(=O)N1c2c(OC)cccc2[C@@]23CCN4C[C@H]5O[C@H]5[C@]5(CC[C@]12[C@](O)(C(=O)OC)[C@@H]5O)[C@H]43` was tested, and the IC50 was “poor activity or moderate activity”.
For `COC(=O)N1c2c(OC)cccc2[C@@]23CCN4CC[C@H](O)[C@]5(CC[C@]12[C@](O)(C(=O)OC)[C@@H]5O)[C@H]43` [KOPSINGANOL], the IC50 was “poor activity or moderate activity”.
`COC(=O)N1c2ccccc2[C@@]23[C@@H]4CN5CCC[C@]6(CC[C@]12[C@@H](O)[C@@H]6C4=O)[C@H]53` [FRUTICOSAMINE] was tested, and the IC50 was “poor activity or moderate activity”.
In the case of `COC(=O)N1c2c(ccc3c2OCO3)[C@@]23CC(=O)N(CCCC4=CC[C@]12[C@](O)(C(=O)OC)C4)C3=O` [PAUCIFLORINE A], the IC50 is reported as “poor activity or moderate activity”.
For `COC(=O)N1c2c(ccc3c2OCO3)[C@]23[C@H]4OC(=O)[C@@]5(O)C[C@@]6(CCCN(C4=O)[C@@]62O)CC[C@]135` [paucidactine A], the IC50 was “poor activity or moderate activity”.
In the case of `CCO[C@H]1C[C@@H]2O[C@@H]3[C@]14CC[C@@]1(N(C(=O)OC)c5c(OC)cccc5[C@@]15CCN2[C@@H]45)[C@]3(O)C(=O)OC` [KOPSIDINE B], the IC50 is reported as “poor activity or moderate activity”.
For `COC(=O)N1c2c(ccc3c2OCO3)[C@]23CC(=O)C[C@@]4(CCCN(C=O)[C@@H]42)CCC13C(=O)OC` (stereo partly specified) [DANUPHYLLINE], the IC50 was “poor activity or moderate activity”.
`COC(=O)N1c2c(OC)cccc2[C@@]23[C@H]4C(=O)[C@@]5(O)[C@H]6O[C@H]4N4CC[C@H](O)[C@]6(CC[C@]125)[C@H]43` was tested, and the IC50 was “poor activity or moderate activity”.

Each compound was assayed on Epidermoid carcinoma cell line (assay: Compound was evaluated for cytotoxicity against vincristine-resistant (KB/VJ300) human oral epidermoid carcinoma cell line). Details: not given.
Format: functional, cell-based
`COC(=O)N1c2c(ccc3c2OCO3)[C@@]23CCN4CCCC5(CCC12[C@](O)(C(=O)OC)C5)[C@H]43` (stereo partly specified) [KOPSAMINE] was tested, and the IC50 was 5.6 µg/mL (≈ 12.3 µM).
`COC(=O)[C@@H]1CC23CCCN4CC[C@@]5(c6ccccc6N(C(=O)OC)C15CC2)[C@@H]43` (stereo partly specified) [PLEIOCARPINE] was tested, and the IC50 was 3.1 µg/mL (≈ 7.82 µM).
With `COC(=O)C1=CC23CCCN4CC[C@@]5(c6ccc7c(c6N(C(=O)OC)C15CC2)OCO7)[C@@H]43` (stereo partly specified) the IC50 was 4.4 µg/mL (≈ 10 µM).
Work on `COC(=O)N1c2c(ccc(OC)c2OC)[C@@]23CCN4CCCC5(CCC12[C@](O)(C(=O)OC)C5)[C@H]43` (stereo partly specified) yielded an IC50 of 1.6 µg/mL (≈ 3.39 µM).
With `COC(=O)N1c2ccccc2[C@@]23CCN4CCCC5(CCC12[C@](O)(C(=O)OC)C5)[C@H]43` (stereo partly specified) [KOPSIFLORINE] the IC50 was 2.3 µg/mL (≈ 5.58 µM).
For `COC(=O)N1c2c(ccc3c2OCO3)[C@@]23CCN4CCCC5(CCC12[C@](O)(C(=O)OC)C5)[C@]43C#N` (stereo partly specified) [LAHADININE A], the IC50 was 2.5 µg/mL (≈ 5.19 µM).
